# According to US11324714B2 (priority 2008, dated 2022):
# Test system: advanced lymphomas
# Assay: Phase II multi-center trial in patients with advanced lymphomas
# Type: in vivo, human
# Description: A Phase II multi-center trial of SGLU-1 (darinaparsin) was conducted in patients diagnosed with advanced lymphomas. Eligible patients required therapy and received at least 1 prior therapy. Patients received 300 mg/m^2 of darinaparsin intravenously for 5 consecutive days every 28 days (1 cycle) and were then evaluated for efficacy and safety by standard criteria. Treatment continued until toxicity or progression. To date the study has accrued 22 patients (15 non Hodgkin's [NHL], 7 Hodgkin's); 12 are male and 10 are female. Median age at baseline was 60.5 years (range: 28-80), ECOG performance status was ≤2, and median number of prior therapies was 3 (range: 1-6). Thirteen subjects have received at least 2 cycles of SGLU-1 and are evaluable for efficacy. Of these, 1 (diagnosed with peripheral T-cell lymphoma (PTCL)) has achieved a complete response (CR), 3 (diagnosed with diffuse large B-cell, marginal zone, and Hodgkin's nodular sclerosis, respectively) have achieved partial responses (PRs), and 2 patients with NHL have achieved stable disease (SD). In the patient with marginal zone lymphoma who achieved PR, no evidence for macroscopic disease was present, but microscopic disease was detectable on random biopsies from normal appearing gastric mucosa. All responders had been heavily pretreated (PTCL: CHOP (cyclophosphamide, doxorubicin, vincristine, and prednisolone)×6, ICE (ifosfamide, carboplatin and etoposide)×1, and EPOCH (etoposide, vincristine, doxorubicin, cyclophosphamide, and prednisone)×2; diffuse B-cell: RCHOP (rituximab, cyclophosphamide, doxorubicin, vincristine, and prednisolone)×5, RICE (rituximab, ifosfamide, carboplatin and etoposide)×3, and radiation therapy; marginal zone: rituximab×8, RCVP (rituximab, cyclophosphamide, vincristine and prednisolone)×1, and gemcitabine×1; and Hodgkin's: ICE×1, CBV (cyclophosphamide, carmustine and etoposide)×1, gemcitabine+MDX-060 (Medarex)×6). A total of 49 cycles of SGLU-1 have been administered. The only Grade 3 adverse event (AE) considered drug-related was wheezing. A total of 12 subjects have reported 37 serious adverse events (SAEs) while on study. Of these, only 2 had SAEs that were considered drug-related (neutropenic fever, fall). […] Initial responses (1 CR, 3 PRs, 2 SDs) have been observed among 13 evaluable patients.
# [1] = 300 mg/m^2 i.v. 5 consecutive days every 28 days, of 13 evaluable subjects
smiles,measurement,setting,value
"C[As](C)SC[C@H](NC(=O)CC[C@H](N)C(=O)O)C(=O)NCC(=O)O [SGLU-1, S-(dimethylarsino) glutathione]",complete response (CR),[1],1 patients
same,partial responses (PRs),[1],3 patients
same,Grade 3 adverse event (AE) considered drug-related,"22 patients, 49 cycles",wheezing
same,serious adverse events (SAEs) reported,"22 patients, 49 cycles",37
same,subjects reporting serious adverse events (SAEs),"22 patients, 49 cycles",12 subjects
same,tolerability,heavily pretreated patients with advanced lymphoma,very well tolerated
same,subjects with SAEs considered drug-related,"neutropenic fever, fall",2 subjects
